The values below come from patent publication US6774144B1, “Methods and formulations for the treatment of infectious bursal disease in avian subjects” (The University of North Carolina at Chapel Hill, priority 1999, dated 2004).

Series [1] relates to Delaware Variant A strain of IBDV. The series is described as follows: In vitro IBDV replication assay in chick embryo fibroblasts (viral antigen capture ELISA). To be noted: compounds maintained in the culture medium throughout.
For a further series, the system named is cells. The series is described as follows: MTT assay for cell viability (cell toxicity). The conditions noted are these: highest concentration tested 1 mM. The format is cell-based. How it is done: BABIM, SW066, and DAP092 were assessed for cell toxicity using the MTT assay for cell viability described in T. Mossman, J. Immunol. Methods 65, 55-63 (1983). […] 10 μl of MTT reagent was added to each wall and incubated for four hours at 38° C. Acid-isopropanol was added to stop the reaction and plates were read within one hour at 570 nm and 630 nm. The 630 nm reading was subtracted from the 570 nm reading. No toxicity was reported for BABIM.

For the next series, the system named is APHIS strain IBDV. The series is described as follows: Leghorn drug study (Example 13). The format is in vivo, Leghorns. To be noted: for protection against IBDV (rank order): 100 EID APHIS IBDV, one mL of 4 mg/ml orally at challenge, 24 and 48 hours PI, necropsy three days post-challenge. How it is done:
The procedure according to Example 12 was carried out with the following modifications: the drugs SW066, DB197, DB528, DB203 and DAP092 were tested in three week old Leghorns for protection against 100 EID of APHIS strain IBDV. The drugs were suspended in histidine-saline and used at a concentration of 4 mg/ml. One mL of drug was administered orally on the day of challenge (30 minutes prior to challenge), 24 hours PI and 48 hours PI. Birds were euthanised by CO2 inhalation and necropsied at three days post-challenge. Each drug and placebo cohort consisted of eight leghorns. Birds were weighed and sorted on the day of challenge to co-mingle birds of different weights and monitor drug dose per body weight. Birds were raised in isolation units. Each unit held 12 birds, two birds for each of the six cohorts (i.e., placebo, SW066, DB197, DB528, DB203 and DAP092). In addition, 12 uninfected birds were housed in a separate isolation unit.
The viral load of the bursa was determined by antigen capture ELISA, as described in Example 2, while absolute lymphocyte cell counts were determined by hemocytometer.

The next series deals with APHIS isolate of IBDV. The series is described as follows: In vivo drug treatment of IBDV-challenged SPF leghorn chickens (Example 10). To be noted: for appearance of bursas upon necropsy: 20 mg/kg nares/cloaca; for appearance of bursas upon necropsy / Lymphocyte Population Per Gram of Bursal tissue, Percentage Uninfected Control: three days; for Lymphocyte Population Per Gram of Bursal tissue, Percentage Uninfected Control: 100 EID APHIS IBDV at three weeks of age, 20 mg/kg, half in the nares, half in the cloaca; for lymphocyte populations: three days after infection. Here is the method: SPF leghorn chickens were challenged at three weeks of age with an 100 EID APHIS isolate of IBDV. Approximately 12 birds were contained in an isolator unit with four units being employed. In each isolator unit, two birds received either drug or a placebo. One unit contained uninfected controls. The birds are treated with the drugs SW066, DAP092, DB453, DB197, and DB203 for three days. Half of the drug dosage was administered in the nares, while the second half was administered in the cloaca, at a dosage of 20 mg/kg. At necropsy, the birds were weighed, their bursa removed, weighed, and ground with a tissue homogenizer. The ground bursa material was evaluated for lymphocyte counts and viral load.

Series [2] deals with APHIS IBDV strain. The series is described as follows: Evaluation of drug effect to prevent or inhibit IBD, SW066 intravenous and prodrug oral (Example 12). It is filed as in vivo, chicks. Here is the method:
The procedure according to Example 11 was carried out, with a variation in which chicks were placed in six groups of ten birds each, as follows: (1) no virus control (oral placebo), (2) no virus control (SW066 intravenous), (3) no virus control (prodrug of SW066 oral), (4) APHIS IBDV strain 130 EID (oral placebo), (5) APHIS IBDV strain 130 EID (SW066 intravenous), and (6) APHIS IBDV strain 130 EID (prodrug of SW066 oral). The birds were challenged at three weeks of age with 100 μl of APHIS strain divided between the eye and nares. Drug was administered intravenously or orally. The prodrug version of SW066 was used via the oral route to enhance absorption. Daily drug treatment began the same day and thirty minutes prior to challenge. After seven days, survivors were sacrificed and necropsied.

Series [3] has as its system APHIS IBDV strain. The series is described as follows: Evaluation of drug effect to prevent or inhibit IBD, oral SW066 (Example 11). The format is in vivo, chicks. How it is done: Chicks were placed in four groups of nine birds each. The four groups were: (1) no virus control (placebo), (2) no virus control (treated with SW066), (3) APHIS IBDV strain at 130 EID (placebo), and (4) APHIS IBDV strain at 130 EID (treated with SW066). The birds were challenged at two weeks of age with 10 μL of the APHIS strain divided between the eye and nares. The drug was administered orally, one mL at a concentration of five mg/mL. […] Daily drug treatment began the same day and 30 minutes prior to challenge. After seven days, survivors were sacrificed and necropsied.
The virus is believed to cause necrosis in the bursa and to reach a plateau of virus level at three days post-challenge. As the inflammation begins to subside, the organ decreases in size and is severely atrophied at seven to ten days post-challenge. The bursa weight is accordingly a measure of bursal disease severity and was used in this experiment to detect differences between treatment groups.

In series [4] the test system is IBDV. The series is described as follows: Trypsin competition experiment. It is filed as cell-based, infectious bursal disease virus. The conditions noted are these: trypsin 1 mg/ml added to the cells in culture. How it is done:
It is known that the addition of trypsin can enhance the attachment and penetration of respiratory syncytial virus and rotavirus. A trypsin competition experiment was performed in order to confirm that the activity of the inventive compounds of the present invention is not the result of protease-mediated virus attachment or penetration, as follows: trypsin (1 mg/ml) was added to the cells in culture described above in Example 6.

For series [5], the system named is IBDV. The format is cell-based, infectious bursal disease virus.
Series [6] concerns IBDV. The series is described as follows: Virucidal effect: viability of virions produced in the presence of drug, second set of CEF cultures. The format is cell-based, infectious bursal disease virus. How it is done:
IBDV-infected cells were treated with varying concentrations (0.01 μM, 0.1 μM, 1 μM, 10 μM and 100 μM) of SW066 for 24 hours. After 24 hours, SW066 was washed away from the cell. After 72 hours of total incubation time (i.e., after the life cycle of IBDV is predicted to be complete), the resulting virions were harvested, as described above.
In order to determine if the virions produced in the presence of drug are viable, varying dilutions of these viral preparations were used to inoculate a second set of CEF cultures. Concentrations of the viral dilutions were as follows: 1.00E-10, 1.00E-09, 1.00E-08, 1.00E-07, 1.00E-06 and 1.00E-05. After 72 hours of incubation, cells were treated by a freeze-thaw method to harvest viral particles, and were assayed by ELISA as described in Example 2.

Another series has as its system IBDV Variant A. It is filed as cell-based, infectious bursal disease virus. The conditions noted are these: 0.1 mM drug.

With `N=C(N)c1ccc2nc(Cc3nc4ccc(C(=N)N)cc4[nH]3)[nH]c2c1` [BABIM], in series [1], the “inhibition of IBDV replication (virion formation)” value is “most significant decrease of virion formation”. The “cell toxicity (MTT assay)” value in the series with cells is reported as “No toxicity”.
As to `Cc1cnc(-c2ccc(C3=NCCN3)cc2)nc1-c1ccc(C2=NCCN2)cc1` [DB197], the “protection against IBDV (rank order)” value in the series on APHIS strain IBDV was “the most protection”. The “lymph per bursa cell number versus uninfected controls” value in the series on APHIS strain IBDV (t-test, p-value=0.01) is “significantly different from uninfected controls”. The “lymph per bursa cell number (rank among groups)” value in the series on APHIS strain IBDV (three days post-challenge) is on record as “the highest”. Besides, in the series with APHIS isolate of IBDV, the “appearance of bursas upon necropsy” value is reported as “appeared identical to those from the uninfected control group”; the “Lymphocyte Population Per Gram of Bursal tissue, Percentage Uninfected Control” value is given as 60.5 Percentage Uninfected Control; the lymphocyte populations result is reported as “maintenance of relatively normal lymphocyte populations”.
As to `COc1cc(C2=NCCN2)ccc1-c1ccnc(-c2ccc(C3=NCCN3)cc2)n1` [DB203], the “protection against IBDV (rank order)” value in the series with APHIS strain IBDV is reported as “DB197>DB203>DB528>DAP092>SW066”. Besides, in the series on APHIS isolate of IBDV, the “appearance of bursas upon necropsy” value is reported as “appeared identical to those from the uninfected control group”; the “Lymphocyte Population Per Gram of Bursal tissue, Percentage Uninfected Control” value is 51.3 Percentage Uninfected Control; the lymphocyte populations entry is recorded as “maintenance of relatively normal lymphocyte populations”.
Take `N=C(N)c1ccc2oc3ccc(C(=N)N)cc3c2c1` [SW066]: the “inhibition of IBDV replication (virion formation)” value in [1] is given as “most significant decrease of virion formation”. Also, the “cell toxicity (MTT assay)” value with cells is “some toxicity may be associated”. The “bursa weight of survivors, difference between groups” value in the series on APHIS IBDV strain [2] (SW066 intravenous or prodrug oral, seven days) is listed as “No statistical significant difference”. In addition, the mortality in the series on APHIS IBDV strain [2] (SW066 intravenous, APHIS IBDV 130 EID, ten birds, placebo 40%) is 10%. Moreover, the “bursa weights versus placebo group” value in the series on APHIS IBDV strain [3] (130 EID APHIS IBDV, oral one mL of five mg/mL daily, seven days, p=0.05) is on record as “higher in the drug treatment group compared to the placebo group”. In addition, the “post-challenge titers, infected drug versus placebo group” value with APHIS IBDV strain [3] (130 EID APHIS IBDV, oral, seven days) was “not significantly different”. Also, in the series with APHIS IBDV strain [3] (groups of nine birds, same number died with placebo), the “deaths in the challenge group” value is recorded as “Two birds died”. In addition, the bursa histology score entry in the series with APHIS IBDV strain [3] (infected birds, placebo group all scored four, remaining drug birds scored four) is on record as “two birds in the drug group (n=7) were scored as three”. Also, the “protection from IBDV induced B-cell depletion” value with APHIS IBDV strain [3] (oral, 130 EID) is “some protection”. In addition, the “effect of the presence of trypsin on the drug's activity” value with IBDV [4] is recorded as “not found to inhibit the drug's activity”. Also, in the series on APHIS strain IBDV, the “protection against IBDV (rank order)” value was “DB197>DB203>DB528>DAP092>SW066”. Also, in the series on IBDV [5] (added after 12 hours), the “virus production when drug is added after infection” value was “very little potential effect on virus production”. Also, the “virus replication when drug is added after infection” value in the series on IBDV [5] (added prior to the 12 hour incubation time point) is “potentially substantial inhibition of virus replication”. In addition, in the series on IBDV [5] (drug remains in the culture past the one hour time point), the “virus production when drug is removed by washing” value is reported as “significant decrease in virus production”. The “virion formation when drug is removed by washing” value in the series with IBDV [5] (removed prior to one hour) is listed as “little or no affect on virion formation”. Besides, in the series with IBDV [6] (10 μM of drug), the “long term drug effect in the second set of cultures” value is “long term drug effect was also observed for some virus dilutions”. Further, the “duration of the virucidal effect” value with IBDV [6] (drug for 24 hours then washed away, virions harvested at 72 hours) is recorded as “not transient”. Besides, the “virus propagation in the second set of cultures” value in the series on IBDV [6] (first set of cultures treated at 100 μM, with the exception of the 10^-5 dilution of virus) is listed as “did not propagate virus”. Also, the “lowest concentration of drug that demonstrated anti-viral activity” value in the series with IBDV [6] (with the 10^-10 dilution of virus) came out at 1 µM. Also, in the series with IBDV Variant A, the “effectiveness in decreasing virion formation (comparison of the three compounds)” value is given as “most effective”. In the series with IBDV Variant A (even at the high concentrations of virus), the “effect in reducing IBDV production” value is on record as “significant effect in reducing IBDV production”. For the same compound, in the series on IBDV Variant A (highest concentration of virus), the “cytopathic effect (CPE), inverted microscope” value was “Very little CPE”. For the same compound, the “Lymphocyte Population Per Gram of Bursal tissue, Percentage Uninfected Control” value in the series on APHIS isolate of IBDV was 4.3 Percentage Uninfected Control.
